According to patent US5212326A, “Sodium hydrogen divalproate oligomer” (Abbott Laboratories, priority 1991, dated 1993):

Experiments:
Type in all cases: in vivo
[1] = test system: Pentylenetetrazole seizures; test: Anticonvulsant activity, pentylenetetrazole seizures in mice (oral ED50); conditions: based on equimolar valproic acid equivalents
Description: (§1) In a comparison of anticonvulsant activities of
(§2) the oral ED50 based on equimolar valproic acid equivalents are established by standard procedures.

[2] = test system: Pentylenetetrazole seizures; test: Anticonvulsant activity, pentylenetetrazole seizures in rats (oral ED50); conditions: Rattus norvegicus, based on equimolar valproic acid equivalents
Description: as §1, §2

[3] = Bioavailability study, blood plasma levels in mouse; conditions: po, 200 mg/kg, equimolar doses, 30 minutes after administration, read-out: peak blood plasma levels
Description: (§3) In a bioavailability study carried out with (A) and (C) above in various animal species, the peak blood plasma levels of oral, equimolar doses are determined according to standard procedures, 30 minutes after drug administration.

[4] = Bioavailability study, blood plasma levels in rat; conditions: po, 200 mg/kg, equimolar doses, 30 minutes after administration, read-out: peak blood plasma levels
Description: as §3

[5] = Bioavailability study, blood plasma levels and AUC in dog; conditions: po, 25 mg/kg, equimolar doses
Description: as §3
*Area under the curve value for 0-7 hours.

SMILES | oral ED50, Pentylenetetrazole seizures (mice) [1] | ED50 [2] | Cmax at 0.5 h [3] | Cmax at 0.5 h [4] | AUC at 7 h ([5]; 0-7 hours, read-out: AUC (Area under the curve value for 0-7 hours)) | Cmax at 0.5 h ([5]; 30 minutes after administration, read-out: peak blood plasma levels) | ED50 ([1]; Mus musculus, po)
CCCC(CCC)C(=O)O [A, 2-propylpentanoic acid] | < 800 mg/kg | 355 mg/kg | 134000 ng/g | 84100 ng/g | 82300 ng·h/mL | 65200 ng/g | 
CCCC(CCC)C(=O)[O-].[Na+] [B, sodium valproate] |  | 415 mg/kg |  |  |  |  | 282 mg/kg
